Each structure is given as a SMILES string.

The text below walks through data of US20250032624A1, “SMALL MOLECULE DEGRADATION METHODS FOR TREATING ALS/FTD” (University of Florida Research Foundation, Incorporated, priority 2021, published 2025).

Data set [1] deals with r(G4C2)^exp-containing foci. The data set is described as follows: RNA FISH of r(G4C2)exp-containing nuclear foci in cortex of +/+PWR500 mice. The settings on record: +/+PWR500 mice vs vehicle. The data set is classed as in vivo, mouse. The protocol:
(§1) A total of 20 age- and gender-matched mice (12 +/+PWR500 [5 Male and 7 Female] and 8 WT [4 Male and 4 Female]), ranging from 18-21 weeks old were used in therapeutic efficacy studies (Table 4). Mice were treated with a single bolus injection of 33 nmol of compound 2 formulated in 1% (v/v) DMSO/99% water, administered by an intracerebroventricular injection (ICV). Three weeks post injection, mice were euthanized, and tissue was harvested for study.
Postmortem brain tissue was excised and sliced along the sagittal plane at the midline. The right hemisphere was flash frozen with Optimal Cutting Temperature (OCT) compound in 2-methylbutane in liquid nitrogen. Frozen tissue was sectioned ([…]) using a cryostat and slides were stained as previously described.^39 Briefly, frozen sections were fixed in 4% paraformaldehyde in 1×DPBS for 20 minutes then incubated in ice cold 70% ethanol at 4° C. for 30 minutes. Once fixed, slides were incubated for 10 minutes in 40% formamide in 2×SSC Buffer at room temperature. Slides were blocked in 1× Hybridization Buffer (40% formamide, 2×SSC Buffer, […] BSA, 100 mg/mL dextran sulfate, 250 μg/mL tRNA, and 2 mM vanadyl sulfate) for 30 minutes at 55° C. Slides were then incubated for 3 hours at 55° C. with 200 ng/mL of FISH probe (Table 1) in 1× Hybridization Buffer. […]

In data set [2] the test system is C9orf72 and transcriptome. The data set is described as follows: RNA-seq in c9ALS/FTD patient-derived iPSCs. The data set is classed as cell-based, human. The protocol: Total RNA integrity was confirmed by Agilent 2100 Bioanalyzer RNA nano chip, and the quantity was measured by Qubit 2.0 Fluorometer (Invitrogen). The library preparation was performed using NEBNext Ultra II Directional RNA kit (NEB, E7760) in combination with NEBNext rRNA depletion module (NEB, E6310) and RNA fragmentation module (NEB, E6150S), following manufacturer's recommendations. Briefly, a total of 200 ng RNA was first processed with depleted of ribosomal RNA, and then randomly fragmented to achieve range between 150 to 300 nucleotides. The fragmented RNAs were random primed for the first-strand synthesis, and the second strand was synthesized with dUTPs. The strand information is thus preserved by using USER enzyme (Uracil-specific excision reagent). The cDNA was PCR amplified and pooled equimolar to load onto the NextSeq 500 v2.5 flow cell and sequenced with 2×40 bp paired-end method. The output fastq files were aligned using STAR 3^5. The read counts of specific regions were extracted using samtools.^36 The global differential gene expression analysis was performed using featureCounts and Deseq2.^37,38

Data set [3] can be described thus: Toxicity to the mouse in the in vivo study. The settings on record: in vivo treatment. The protocol: as §1
The subject of data set [4] is r(G4C2)8. As to the kind of experiment: In vitro RNase L-mediated cleavage of 32P-labeled r(G4C2)8, gel analysis. The data set is classed as biochemical. The settings on record: 10 μM and 20 μM compound, constant RNase L. How it is done: The 5′ end of r(G4C2)8 (SEQ ID NO: 1) (a model of r(G4C2)^exp) was radiolabeled with ^32P and purified on a denaturing polyacrylamide gel (15%), as previously described^31,32. After purification, labeled RNA (25 nM) was folded in 1×RNase L buffer (25 mM Tris-HCl, pH 7.4, and 100 mM NaCl) for 5 minutes at 95° C. The folded RNA was cooled to room temperature and 2-mercaptoethanol (7 mM final concentration), ATP (50 μM final concentration), and MgCl2 (10 mM final concentration) were added to the solution. Dilutions of compound in the folded RNA solution were then made and incubated for 15 minutes at room temperature. After the incubation, RNase L was added to a final concentration 50 nM. Samples were incubated at 37° C. overnight. Cleavage fragments were then separated on a denaturing 15% polyacrylamide gel, imaged by autoradiography (Typhoon FLA 9500), and quantified using the QuantityOne software (BioRad). All experiments were performed in duplicate.

Data set [5] relates to r(G4C2)^exp-containing intron 1 of C9orf72. The data set is described as follows: C9orf72 transcript RT-qPCR in c9ALS/FTD patient-derived LCLs. The data set is classed as cell-based, human. The settings on record: 500 nM. The protocol: Measuring Levels of C9orf72 and C9orf72 Variants by RT-qPCR. LCLs and iPSCs were seeded in 6-well plates (˜10^6 cells in 2 mL of Basal medium) and incubated overnight at 37° C. with 5% CO2. LCLs were then treated with compound for 4 days without media changes; patient-derived iPSCs were seeded at ˜80% confluency and treated, as described above. Treatment with either a G4C2-ASO or Control-ASO (100 nM) was used as a control. ASO transfection was achieved using Lipofectamine RNAiMax (Life Technologies), following the manufacturer's protocol. After 4 days of treatment (with either compound or ASO), total RNA was extracted using the Quick-RNA Miniprep Kit (Zymo Research). RNA was quantified via Nanodrop and ˜1 μg of total RNA was reverse transcribed using qScript (Quantbio), according to the manufacturer's guidelines. RT-qPCR was performed on a QuantStudio™ Real-Time PCR Instrument (Applied Biosystems) using Power SYBR Green Master Mix (Applied Biosystems). Expression levels of mRNAs were normalized to GAPDH. See Table 2 for a list of primers used.

Take `CCOC(=O)C1=C(Nc2ccccc2)S/C(=C\c2ccc(OCCOCCOCCOCCNC(=O)CCCOc3ccc4c(c3)c3cc5c(C(=O)N[C@H](C)CN(C)C)nccc5c(C)c3n4C)c(O)c2)C1=O` [ALS Compound Formula I]: the “number of r(G4C2)^exp-containing foci in the nuclei of cortex neurons” value in data set [1] is on record as “significantly reduced”. For the same compound, in data set [2], the “SOCS1 regulation by RNA-seq” value is “not found to be significantly down-regulated”. Further, in data set [2] (50 nM), the “intron 1:exon 2 ratio” value is listed as “significantly reduced”, the off-targets transcriptome-wide result is “minimal off-targets” and the “total C9orf72 read counts” value is on record as “no effect”. The “toxicity to the mouse” value in data set [3] is reported as “without causing toxicity to the mouse”. Also, the “cleavage of r(G4C2)8” value in data set [4] is listed as “significant cleavage”. For the same compound, in data set [5], the “reduction in C9orf72 intron 1 abundance” value is ~50%.
